This note sets out measurements from ChEMBL document CHEMBL5729210, “Benzodiazepine derivatives as RSV inhibitors” (2022).

A short description of the test: RSV-A Assay: The description is Japanese.

Some results are limits rather than exact numbers.

For `N#Cc1ccc(-c2nnc(NC3N=C(c4ccccc4)c4ccccc4NC3=O)o2)cc1` (stereo not drawn), the EC50 result is “in the range around 600 nM”.

Turning to `O=C1Nc2ccccc2C(c2ccccc2)=N[C@@H]1Nc1nnc(-c2nc(C3CCC3)sc2N2CCOCC2)o1`, the EC50 was under 400 nM. Take `CN1C(=O)C(Nc2nnc(-c3ccc(F)cc3)o2)N=C(c2ccccc2)c2ccccc21` (stereo not drawn): the EC50 was over 800 nM. Regarding `O=C1Nc2ccccc2C(c2ccccc2)=NC1Nc1nnc(-c2cncs2)o1` (stereo not drawn), the EC50 is over 800 nM. The compound `O=C1Nc2ccccc2C(c2ccccc2)=NC1Nc1nnc(-c2cccnc2N2CC(F)(F)C2)o1` (stereo not drawn) had an EC50 of over 800 nM. The result for `CO[C@@H](C)CNc1sc(C(F)(F)F)nc1-c1nnc(N[C@H]2N=C(c3ccccc3)c3ccccc3NC2=O)o1` reads under 400 nM; that for `O=C1Nc2ccccc2C(c2ccccc2)=NC1Nc1nnc(-c2cccc(F)c2)o1` (stereo not drawn), over 800 nM. The result for `N#Cc1ccc(-c2nnc(NC3N=C(c4ccccc4)c4ccccc4NC3=O)o2)cc1F` (stereo not drawn) reads over 800 nM.

`COC[C@@H]1C[C@H]1c1cc(C(F)(F)F)cnc1-c1nnc(N[C@H]2N=C(c3ccccc3)c3ccccc3NC2=O)o1` gave an EC50 of over 800 nM. In turn, `CCOC(=O)c1nc(C(F)(F)F)sc1C1=CCOCC1` yielded an EC50 of under 400 nM. `COC[C@H]1C[C@@H]1c1cc(C(F)(F)F)cnc1-c1nnc(N[C@@H]2N=C(c3ccccc3)c3ccccc3NC2=O)o1`: the EC50 was over 800 nM.

In turn, `O=C1Nc2c(F)cccc2C(c2ccccc2)=N[C@@H]1Nc1nnc(-c2ccccc2N2CCOCC2)o1` returned an EC50 of under 400 nM.

Regarding `COC(=O)c1nc(C)sc1N1CCOCC1`, the EC50 is under 400 nM.

In turn, `O=C1Nc2c(Cl)cccc2C(c2ccccc2)=NC1Nc1nnc(-c2ccccc2N2CCOCC2)o1` (stereo not drawn) yielded an EC50 of over 800 nM. The result for `O=C1Nc2ccccc2C(c2ccccc2)=NC1Nc1nnc(-c2ccc(-n3cccn3)nc2)o1` (stereo not drawn) reads over 800 nM; that for `O=C1Nc2ccccc2C(c2ccccc2)=NC1Nc1nc2ccccc2o1` (stereo not drawn), over 800 nM.

Regarding `CCOC(=O)c1nc(C2(O)CCC2)sc1N1CCOCC1`, the EC50 was under 400 nM.

Turning to `O=C1Nc2ccccc2C(c2ccccc2)=N[C@@H]1Nc1nnc(-c2nc(C(F)(F)F)sc2NCC2COC2)o1`, the EC50 entry is “in the range around 600 nM”. Consider `COc1cnc(-c2nnc(NC3N=C(c4ccccc4)c4ccccc4NC3=O)o2)c(F)c1` (stereo not drawn), for which the EC50 is over 800 nM. The result for `O=C1Nc2ccccc2C(c2ccccc2)=NC1Nc1nc(Cl)ns1` (stereo not drawn) reads over 800 nM; that for `O=C1Nc2ccccc2C(c2ccccc2)=NC1Nc1ncc2ccccc2n1` (stereo not drawn), over 800 nM. In turn, `COCCCc1cc(C(F)(F)F)cnc1C(=O)NN` registered an EC50 of over 800 nM. The result for `CN(c1nnc(-c2ccc(F)cc2)o1)C1N=C(c2ccccc2)c2ccccc2NC1=O` (stereo not drawn) reads over 800 nM. `O=C1Nc2ccccc2C(c2ccccc2)=N[C@@H]1Nc1nnc(-c2cn(-c3ccccn3)nc2N2CCOCC2)o1` displayed an EC50 of under 400 nM.

In the case of `O=C1Nc2ccccc2C(c2ccccc2)=NC1Nc1ncc(-c2ccccc2)o1` (stereo not drawn), the EC50 is over 800 nM.

In the case of `C[C@@H]1CN(c2cc(C#N)cnc2-c2nnc(N[C@H]3N=C(c4ccccc4)c4ccccc4NC3=O)o2)CCO1`, the EC50 entry is “in the range around 600 nM”. Next, `O=C1Nc2ccccc2C(c2ccccc2)=N[C@@H]1Nc1nnc(-c2nc(C3(C(F)(F)F)CCC3)sc2N2CCOCC2)o1`: under 400 nM; `O=C1Nc2ccccc2C(c2ccccc2)=NC1Nc1nnc(-c2ccnc(F)c2)o1` (stereo not drawn): under 400 nM.

As to `O=C1Nc2ccccc2C(c2ccccc2)=N[C@@H]1Nc1nnc(-c2ccco2)o1`, the EC50 entry is “in the range around 600 nM”. The result for `O=C1Nc2ccccc2C(c2ccccc2)=NC1Nc1nnc(-c2ccc(F)cc2)s1` (stereo not drawn) reads over 800 nM. `CCOC(=O)c1nc2ccccn2c1N` registered an EC50 of over 800 nM. Next, `Cc1cc(-c2nnc(NC3N=C(c4ccccc4)c4ccccc4NC3=O)o2)ccc1C#N` (stereo not drawn): “in the range around 600 nM”; `COc1ccc(CN2C(=O)C(Nc3ccc(-c4ccccc4)nn3)N=C(c3ccccc3)c3ccccc32)cc1` (stereo not drawn): “in the range around 600 nM”; `O=C1Nc2ccccc2C(c2ccccc2)=NC1Nc1nnc([C@@H]2CCCN2C2CCNCC2)o1` (stereo partly drawn): over 800 nM. The result for `O=C1Nc2ccccc2C(c2ccccc2)=NC1Nc1nnc(-c2cnccc2N2CCCCC2)o1` (stereo not drawn) reads over 800 nM. `O=C1Nc2ccccc2C(c2ccccc2)=N[C@H]1Nc1nnc(-c2ccccc2N2CCOCC2)o1` yielded an EC50 of over 800 nM. The result for `O=C1Nc2ccccc2C(c2ccccc2)=NC1Nc1nnc(-c2ccncc2)s1` (stereo not drawn) reads over 800 nM; that for `Cn1cc(-c2cc(C#N)cnc2-c2nnc(N[C@H]3N=C(c4ccccc4)c4ccccc4NC3=O)o2)ccc1=O`, over 800 nM. The result for `O=C1Nc2ccccc2C(c2ccccc2)=NC1Nc1nnc(-c2ccccc2N2CCOCC2)[nH]1` (stereo not drawn) reads over 800 nM. Regarding `O=C1Nc2ccccc2C(c2ccccc2)=NC1Nc1nnc(C2CCC2)o1` (stereo not drawn), the EC50 is over 800 nM. For the compound `N#Cc1ccc(-c2nnc(N[C@H]3N=C(c4ccccc4)c4ccccc4NC3=O)o2)c(N2CC3CCC(C2)O3)c1`, the 50% effective concentration (EC50) is under 400 nM. Take `COCCCc1sc(C(F)(F)F)nc1-c1nnc(N[C@H]2N=C(c3ccccc3)c3ccccc3NC2=O)o1`: the EC50 was over 800 nM. The result for `O=C1Nc2ccccc2C(c2ccccc2)=NC1Nc1nnc(-c2ccc(-n3cccn3)cc2)o1` (stereo not drawn) reads “in the range around 600 nM”; that for `O=C1Nc2ccccc2C(c2ccccc2)=NC1Nc1nnc(-c2ccccc2C2CCOCC2)o1` (stereo not drawn), over 800 nM; that for `CN1CCC(N2CCC[C@H]2c2nnc(NC3N=C(c4ccccc4)c4ccccc4NC3=O)o2)CC1` (stereo partly drawn), over 800 nM. The result for `O=C1Nc2ccccc2C(c2ccccc2)=N[C@@H]1Nc1nnc(-c2cnc(-n3cncn3)nc2N2CCOCC2)o1` reads over 800 nM; that for `N#Cc1cnc(-c2nnc(N[C@H]3N=C(c4ccccc4)c4ccccc4NC3=O)o2)c(N2C3CCC2COC3)c1`, “in the range around 600 nM”. For the compound `O=C1Nc2ccccc2C(c2ccccc2)=NC1Nc1nnc(-c2cccnc2N2C3CCC2COC3)o1` (stereo not drawn), the EC50 is over 800 nM.

Turning to `Cn1nnc(-c2ccc(-c3nnc(NC4N=C(c5ccccc5)c5ccccc5NC4=O)o3)cc2)n1` (stereo not drawn), the EC50 was over 800 nM. Next, `O=C1Nc2ccccc2C(c2ccccc2)=NC1Nc1nnc(-c2ccc(Cl)cc2)o1` (stereo not drawn): under 400 nM. Compound `O=C1Nc2ccccc2C(c2ccccc2)=NC1Nc1nnc(-c2ccc(C(F)(F)F)cc2N2CCOCC2)o1` (stereo not drawn) showed an EC50 of under 400 nM. Next, `CO[C@@H]1CCN(c2ccccc2-c2nnc(NC3N=C(c4ccccc4)c4ccccc4NC3=O)o2)C1` (stereo partly drawn): over 800 nM; `CCOC(=O)c1cn(-c2cccnc2)nc1N1CCOCC1`: under 400 nM; `O=C1Nc2ccccc2C(c2ccccc2)=NC1Nc1nnc(C2CCOCC2)o1` (stereo not drawn): over 800 nM. Consider `CN(C)c1ccc(-c2nnc(NC3N=C(c4ccccc4)c4ccccc4NC3=O)o2)nc1` (stereo not drawn), for which the EC50 is over 800 nM.

In turn, `O=c1c(Br)cccn1Cc1ccccc1` registered an EC50 of over 800 nM. The result for `O=C1Nc2ccccc2C(c2ccccc2)=NC1Nc1nnc(-c2cc(F)ccc2N2CCOCC2)o1` (stereo not drawn) reads “in the range around 600 nM”; that for `O=C1Nc2ccccc2C(c2ccccc2)=NC1Nc1nnc(CCc2ccccc2)o1` (stereo not drawn), over 800 nM.

In turn, `O=C1Nc2ccccc2C(c2ccccc2)=NC1Nc1nnc(-c2ccccc2OC2CCOCC2)o1` (stereo not drawn) showed an EC50 of over 800 nM.

In turn, `COC(=O)c1nc(Br)sc1N1CCOCC1` came in with an EC50 of under 400 nM. Next, `COC[C@@H]1C[C@H]1c1sc(C(F)(F)F)nc1-c1nnc(N[C@H]2N=C(c3ccccc3)c3ccccc3NC2=O)o1`: over 800 nM; `CC1(c2nnc(NC3N=C(c4ccccc4)c4ccccc4NC3=O)o2)CCNC1` (stereo not drawn): over 800 nM; `O=C1Nc2ccccc2C(c2ccccc2)=N[C@@H]1Nc1nnc(-c2oc3cc(F)ccc3c2N2CCOCC2)o1`: “in the range around 600 nM”.

In the case of `O=C1Nc2ccccc2C(c2ccccc2)=NC1Nc1nnc(-c2ccncc2)o1` (stereo not drawn), the EC50 entry is “in the range around 600 nM”. Next, `N#Cc1cnc(-c2nnc(N[C@H]3N=C(c4ccccc4)c4ccccc4NC3=O)o2)c(N2CCOCC2)c1`: under 400 nM. In turn, `O=C1Nc2ccccc2C(c2ccccc2)=N[C@@H]1Nc1nnc(-c2ncc(C3CC3)cc2N2CCOCC2)o1` registered an EC50 of under 400 nM. In the case of `CO[C@H]1CCN(c2ncccc2-c2nnc(NC3N=C(c4ccccc4)c4ccccc4NC3=O)o2)C1` (stereo partly drawn), the EC50 is over 800 nM. The result for `O=C1Nc2ccccc2C(c2ccccc2)=NC1Nc1nnc(-c2ccc(OC3CCOCC3)cc2)o1` (stereo not drawn) reads over 800 nM; that for `O=C1Nc2ccccc2C(c2ccccc2)=NC1Nc1nnc(-c2cccnc2N2CCC(F)CC2)o1` (stereo not drawn), over 800 nM; that for `CCc1nc(N2CCOCC2)c(-c2nnc(N[C@H]3N=C(c4ccccc4)c4ccccc4NC3=O)o2)cc1C#N`, under 400 nM.

In turn, `C[C@H]1CN(c2cc(C(F)(F)F)cnc2-c2nnc(N[C@H]3N=C(c4ccccc4)c4ccccc4NC3=O)o2)CCO1` returned an EC50 of under 400 nM. Next, `O=C1Nc2ccccc2C(c2ccccc2)=NC1Nc1nc2c(F)cccc2o1` (stereo not drawn): over 800 nM; `O=C1Nc2ccccc2C(c2ccccc2)=NC1Nc1nnc(-c2cccnc2N2C[C@H]3COC[C@H]3C2)o1` (stereo partly drawn): over 800 nM; `Cn1cc(N2CCOCC2)c(-c2nnc(N[C@H]3N=C(c4ccccc4)c4ccccc4NC3=O)o2)n1`: under 400 nM. Consider `O=C1Nc2ccccc2C(c2ccccc2)=NC1Nc1nnc(-c2ccc(-n3cncn3)cc2)o1` (stereo not drawn), for which the EC50 entry is “in the range around 600 nM”.

The compound `O=C1Nc2ccccc2C(c2ccccc2)=NC1Nc1nnc(-c2cccc(F)c2N2CCOCC2)o1` (stereo not drawn) had an EC50 of over 800 nM. The compound `O=C1Nc2ccccc2C(c2ccccc2)=NC1Nc1nnc(-c2ccc(-n3ccnc3)cc2)o1` (stereo not drawn) displayed an EC50 of under 400 nM.

For the compound `O=C1Nc2ccccc2C(c2ccccc2)=NC1Nc1nnc(C2CC3(CCNCC3)C2)o1` (stereo not drawn), the EC50 is over 800 nM. `COC(=O)c1nc(-c2ccccn2)sc1Cl`: the EC50 is under 400 nM.

The compound `O=C1Nc2ccccc2C(c2ccccc2)=N[C@@H]1Nc1nnc(-c2ccc(N3CCOCC3)cc2F)o1` displayed an EC50 of under 400 nM.

With `O=C1Nc2ccccc2C(c2ccccc2)=NC1Nc1nnc(C23CCN(CC2)CC3)o1` (stereo not drawn), the EC50 was over 800 nM. For the compound `COc1ccc(-c2nnc(NC3N=C(c4ccccc4)c4ccccc4NC3=O)o2)nc1Cl` (stereo not drawn), the EC50 was over 800 nM. The result for `N#Cc1ccc(-c2nnc(N[C@H]3N=C(c4ccccc4)c4ccccc4NC3=O)o2)c(N2C3CCC2COC3)c1` reads under 400 nM.
